Experimental data from patent publication US11272709B2, “Amidine substituted benzoyl derivatives useful as herbicides” (Syngenta Participations AG, priority 2018, dated 2022).

Columns and labels:
Type in all cases: in vivo
Settings in all cases: evaluated after 13 days
Setaria faberi (SETFA) [1] = assay: Pre-emergence herbicidal glasshouse test, Setaria faberi (SETFA)
Experimental: (§1) Seeds of a variety of test species are sown in standard soil in pots (Lolium perenne (LOLPE), Amaranthus retoflexus (AMARE), Abutilon theophrasti (ABUTH), Setaria faberi (SETFA), Echinochloa crus-galli (ECHCG), Ipomoea hederacea (IPOHE)). After cultivation for one day (pre-emergence) or after 8 days cultivation (post-emergence) under controlled conditions in a glasshouse (at 24/16° C., day/night; 14 hours light; 65% humidity), the plants are sprayed with an aqueous spray solution derived from the formulation of the technical active ingredient in acetone/water (50:50) solution containing 0.5% Tween 20 (polyoxyethelyene sorbitan monolaurate, CAS RN 9005-64-5). Compounds are applied at 500 g/h unless otherwise indicated. The test plants are then grown in a glasshouse under controlled conditions in a glasshouse (at 24/16° C., day/night; 14 hours light; 65% humidity) and watered twice daily. After 13 days for pre and post-emergence, the test is evaluated for the percentage damage caused to the plant. The biological activities are shown in the following table on a five point scale (5=80-100%; 4=60-79%; 3=40-59%; 2=20-39%; 1=0-19%).

[2] = tested on: Echinochloa crus-galli (ECHCG); assay: Pre-emergence herbicidal glasshouse test, Echinochloa crus-galli (ECHCG)
Experimental: as §1

[3] = tested on: Abutilon theophrasti (ABUTH); assay: Post-emergence herbicidal glasshouse test, Abutilon theophrasti (ABUTH)
Experimental: as §1

Setaria faberi (SETFA) [4] = assay: Post-emergence herbicidal glasshouse test, Setaria faberi (SETFA)
Experimental: as §1

[5] = tested on: Amaranthus retoflexus (AMARE); assay: Pre-emergence herbicidal glasshouse test, Amaranthus retoflexus (AMARE)
Experimental: as §1

[6] = tested on: Ipomoea hederacea (IPOHE); assay: Post-emergence herbicidal glasshouse test, Ipomoea hederacea (IPOHE)
Experimental: as §1

[7] = tested on: Abutilon theophrasti (ABUTH); assay: Pre-emergence herbicidal glasshouse test, Abutilon theophrasti (ABUTH)
Experimental: as §1

[8] = tested on: Echinochloa crus-galli (ECHCG); assay: Post-emergence herbicidal glasshouse test, Echinochloa crus-galli (ECHCG)
Experimental: as §1

[9] = tested on: Amaranthus retoflexus (AMARE); assay: Post-emergence herbicidal glasshouse test, Amaranthus retoflexus (AMARE)
Experimental: as §1

[10] = tested on: Ipomoea hederacea (IPOHE); assay: Pre-emergence herbicidal glasshouse test, Ipomoea hederacea (IPOHE)
Experimental: as §1

| SMILES | PRE Application SETFA, percentage damage (five point scale) (Setaria faberi (SETFA) [1]; 500 g/h) | PRE Application ECHCG, percentage damage (five point scale) ([2]; 500 g/h) | POST Application ABUTH, percentage damage (five point scale) ([3]; 500 g/h) | POST Application SETFA, percentage damage (five point scale) (Setaria faberi (SETFA) [4]; 500 g/h) | PRE Application AMARE, percentage damage (five point scale) ([5]; 500 g/h) | POST Application IPOHE, percentage damage (five point scale) ([6]; 500 g/h) | PRE Application ABUTH, percentage damage (five point scale) ([7]; 500 g/h) | POST Application ECHCG, percentage damage (five point scale) ([8]; 500 g/h) | POST Application AMARE, percentage damage (five point scale) ([9]; 500 g/h) | PRE Application IPOHE, percentage damage (five point scale) ([10]; 500 g/h) | also measured |
| --- | --- | --- | --- | --- | --- | --- | --- | --- | --- | --- | --- |
| Cc1c(C(=O)Nc2nnnn2C)ccc(C(F)(F)F)c1N=CN(C)C [Compound 1.017] | 5 (5=80-100%) | 5 (5=80-100%) | 5 (5=80-100%) | 5 (5=80-100%) | 5 (5=80-100%) | 5 (5=80-100%) | 5 (5=80-100%) | 5 (5=80-100%) | 5 (5=80-100%) | 5 (5=80-100%) | – |
| Cc1c(C(=O)Nc2nnnn2C)ccc(S(C)(=O)=O)c1/N=C/N(C)C [Compound 1.025, 3-[(E)-dimethylaminomethyleneamino]-2-methyl-4-methylsulfonyl-N-(1-methyltetrazol-5-yl)benzamide] | 5 (5=80-100%) | 5 (5=80-100%) | 5 (5=80-100%) | 5 (5=80-100%) | 5 (5=80-100%) | 5 (5=80-100%) | 5 (5=80-100%) | 5 (5=80-100%) | 5 (5=80-100%) | 5 (5=80-100%) | – |
| CCN(C)C=Nc1c(S(C)(=O)=O)ccc(C(=O)Nc2nnnn2C)c1C [Compound 1.027] | 5 (5=80-100%) | 5 (5=80-100%) | 5 (5=80-100%) | 5 (5=80-100%) | 5 (5=80-100%) | 5 (5=80-100%) | 5 (5=80-100%) | 5 (5=80-100%) | 5 (5=80-100%) | 5 (5=80-100%) | – |
| CCN(C=Nc1c(S(C)(=O)=O)ccc(C(=O)Nc2nnnn2C)c1C)CC [Compound 1.031] | 5 (5=80-100%) | 5 (5=80-100%) | 5 (5=80-100%) | 5 (5=80-100%) | 5 (5=80-100%) | 5 (5=80-100%) | 5 (5=80-100%) | 5 (5=80-100%) | 5 (5=80-100%) | 4 (4=60-79%) | – |
| CN(C)C=Nc1c(Cl)ccc(C(=O)Nc2nnnn2C)c1Cl [Compound 1.041] | – | 5 (5=80-100%) | 5 (5=80-100%) | 5 (5=80-100%) | 5 (5=80-100%) | 5 (5=80-100%) | 5 (5=80-100%) | 5 (5=80-100%) | 5 (5=80-100%) | 5 (5=80-100%) | – |
| CCN(C=Nc1c(C(F)(F)F)ccc(C(=O)Nc2nnnn2C)c1Cl)CC [Compound 1.055] | 5 (5=80-100%) | 5 (5=80-100%) | 5 (5=80-100%) | 5 (5=80-100%) | 5 (5=80-100%) | 5 (5=80-100%) | 5 (5=80-100%) | 5 (5=80-100%) | 5 (5=80-100%) | 5 (5=80-100%) | – |
| CN(C)C=Nc1c(S(C)(=O)=O)ccc(C(=O)Nc2nnnn2C)c1Cl [Compound 1.057] | – | – | – | – | – | – | – | – | – | – | PRE Application SETFA, percentage damage (five point scale) (Setaria faberi (SETFA) [1]; applied at 125 g/ha): 5 (5=80-100%); PRE Application ECHCG, percentage damage (five point scale) ([2]; applied at 125 g/ha): 5 (5=80-100%); POST Application ABUTH, percentage damage (five point scale) ([3]; applied at 125 g/ha): 5 (5=80-100%); POST Application SETFA, percentage damage (five point scale) (Setaria faberi (SETFA) [4]; applied at 125 g/ha): 5 (5=80-100%); PRE Application AMARE, percentage damage (five point scale) ([5]; applied at 125 g/ha): 5 (5=80-100%); POST Application IPOHE, percentage damage (five point scale) ([6]; applied at 125 g/ha): 5 (5=80-100%); PRE Application ABUTH, percentage damage (five point scale) ([7]; applied at 125 g/ha): 5 (5=80-100%); POST Application ECHCG, percentage damage (five point scale) ([8]; applied at 125 g/ha): 5 (5=80-100%); POST Application AMARE, percentage damage (five point scale) ([9]; applied at 125 g/ha): 5 (5=80-100%); PRE Application IPOHE, percentage damage (five point scale) ([10]; applied at 125 g/ha): 5 (5=80-100%) |
| CC(=NOCc1c(S(C)(=O)=O)ccc(C(=O)Nc2nnnn2C)c1Cl)N(C)C [Compound 1.129] | 5 (5=80-100%) | 5 (5=80-100%) | 5 (5=80-100%) | 5 (5=80-100%) | 5 (5=80-100%) | 5 (5=80-100%) | 5 (5=80-100%) | 5 (5=80-100%) | 5 (5=80-100%) | 5 (5=80-100%) | – |
| CN(/C=N/c1c(C(F)(F)F)ccc(C(=O)Nc2nnnn2C)c1Cl)CC(F)(F)F [Compound 1.130, 2-chloro-N-(1-methyltetrazol-5-yl)-3-[(E)-[methyl(2,2,2-trifluoroethyl)amino]methyleneamino]-4-(trifluoromethyl)benzamide] | 5 (5=80-100%) | 5 (5=80-100%) | 5 (5=80-100%) | 5 (5=80-100%) | 5 (5=80-100%) | 5 (5=80-100%) | 5 (5=80-100%) | 5 (5=80-100%) | 5 (5=80-100%) | 5 (5=80-100%) | – |
| CN(C=Nc1c(C(F)(F)F)ccc(C(=O)Nc2nnnn2C)c1Cl)c1ccccc1 [Compound 1.131] | 5 (5=80-100%) | 5 (5=80-100%) | 5 (5=80-100%) | 5 (5=80-100%) | 5 (5=80-100%) | 5 (5=80-100%) | 5 (5=80-100%) | 5 (5=80-100%) | 5 (5=80-100%) | 5 (5=80-100%) | – |
| Cn1nnnc1NC(=O)c1ccc(C(F)(F)F)c(/N=C/N2CCCC2)c1Cl [Compound 1.132, 2-chloro-N-(1-methyltetrazol-5-yl)-3-[(E)-pyrrolidin-1-ylmethyleneamino]-4-(trifluoromethyl)benzamide] | 5 (5=80-100%) | 5 (5=80-100%) | 5 (5=80-100%) | 5 (5=80-100%) | 5 (5=80-100%) | 5 (5=80-100%) | 5 (5=80-100%) | 5 (5=80-100%) | 5 (5=80-100%) | 5 (5=80-100%) | – |
| Cn1nnnc1NC(=O)c1ccc(C(F)(F)F)c(N=CN2CCOCC2)c1Cl [Compound 1.135] | – | – | – | – | – | – | – | – | – | – | PRE Application SETFA, percentage damage (five point scale) (Setaria faberi (SETFA) [1]; applied at 250 g/ha): 5 (5=80-100%); PRE Application ECHCG, percentage damage (five point scale) ([2]; applied at 250 g/ha): 5 (5=80-100%); POST Application ABUTH, percentage damage (five point scale) ([3]; applied at 250 g/ha): 5 (5=80-100%); POST Application SETFA, percentage damage (five point scale) (Setaria faberi (SETFA) [4]; applied at 250 g/ha): 5 (5=80-100%); PRE Application AMARE, percentage damage (five point scale) ([5]; applied at 250 g/ha): 5 (5=80-100%); POST Application IPOHE, percentage damage (five point scale) ([6]; applied at 250 g/ha): 5 (5=80-100%); PRE Application ABUTH, percentage damage (five point scale) ([7]; applied at 250 g/ha): 5 (5=80-100%); POST Application ECHCG, percentage damage (five point scale) ([8]; applied at 250 g/ha): 3 (3=40-59%); POST Application AMARE, percentage damage (five point scale) ([9]; applied at 250 g/ha): 5 (5=80-100%); PRE Application IPOHE, percentage damage (five point scale) ([10]; applied at 250 g/ha): 5 (5=80-100%) |
